# Reference: EPA's ToxValDB 9.5
# Legend:
# Mus musculus [1] = settings: uterotrophic; duration: 3 days; injection; intraperitoneal; Active
# Rattus norvegicus [2] = settings: for LC50 / LD50: acute
# Oryctolagus sp. [3] = settings: dermal; for LD50: acute
# Mus musculus [4] = settings: for LC50: acute
# Cavia porcellus = settings: acute, Guinea Pig
# Rattus norvegicus [5] = settings: oral
# Rattus norvegicus [6] = settings: chronic; duration: 16 weeks; oral; diet; Kidney: Degeneration
# Rattus norvegicus [7] = settings: subchronic; duration: 6 weeks; inhalation; M/F; Sprague-Dawley; neurotoxicity: tremors and ruffled pelt
# Rattus norvegicus [8] = tested on: Rattus norvegicus
# Oryctolagus sp. [9] = settings: oral, gavage, New Zealand
# Canidae [10] = settings: oral, M/F, Beagle
# Homo sapiens = settings: clinical; duration: 1 days; inhalation; M/F; respiratory
# Oryctolagus sp. [11] = tested on: Oryctolagus sp.
# Canidae [12] = settings: chronic; duration: 2 years; oral; diet; M/F; Dog Other; No adverse effects observed at the HDT
# Canidae [13] = settings: subchronic; duration: 3 months; oral; diet; Beagle
# [14] = reproduction developmental, duration: 10 days, oral, gavage, F, Crl:CD(SD)
# [15] = reproduction developmental, duration: 28 days, oral, diet
# [16] = subchronic, duration: 90 days, oral, diet, Sprague-Dawley
# [17] = reproduction developmental, duration: 21 days, New Zealand
# [18] = subchronic, duration: 90 days, oral, diet, B6C3F1
# [19] = chronic, duration: 12 months, capsule, Decreased bodyweight gains & peripheral redness
# [20] = duration: 12 months, capsule, Decreased bodyweight gains & peripheral redness
# [21] = developmental, oral, M/F, Reduced body weight gain (maternal), increased resorption, reduced body weight (fetal), delayed ossification
# [22] = subchronic, inhalation, M, New Zealand White / Sprague-Dawley, testicular effects
smiles,measurement,setting,value
"CC(C)(c1cc(Br)c(O)c(Br)c1)c1cc(Br)c(O)c(Br)c1 [3,3',5,5'-Tetrabromobisphenol A]",LEL,Mus musculus [1],20 mg/kg-day
same,LC50,Rattus norvegicus [2]; inhalation,> 28200 mg/m3
same,LC50,"Rattus norvegicus [2]; inhalation, Wistar",> 50 µg/mL
same,LD50,"Rattus norvegicus [2]; oral, gavage, Sprague-Dawley",> 5000 mg/kg
same,NOAEL,"Rattus norvegicus [2]; developmental, duration: 19 days, oral, gavage",1000 mg/kg-day
same,LOAEL,"Rattus norvegicus [2]; developmental, duration: 19 days, oral, gavage, Wistar",> 2500 mg/kg-day
same,NOAEL,"Rattus norvegicus [2]; developmental, duration: 20 days, oral, Wistar",2500 mg/kg-day
same,LOAEL,Rattus norvegicus [2]; [14],5000 mg/kg-day
same,NOAEL,Rattus norvegicus [2]; [14],3000 mg/kg-day
same,LOAEL,"Rattus norvegicus [2]; reproduction developmental, duration: 14 days, inhalation",6 mg/L
same,LOAEL,"Rattus norvegicus [2]; reproduction developmental, duration: 19 days, oral, gavage, F",> 1000 mg/kg-day
same,NOAEL,"Rattus norvegicus [2]; reproduction developmental, duration: 20 days, oral, gavage, F, Sprague-Dawley",1000 mg/kg-day
same,LOAEC,Rattus norvegicus [2]; [15],> 1000 ppm
same,NOAEL,Rattus norvegicus [2]; [15],≥ 1000 ppm
same,LOAEL,"Rattus norvegicus [2]; reproduction developmental, oral, gavage, Sprague-Dawley, generation: F0",1000 mg/kg-day
same,LOAEL,Rattus norvegicus [2]; [16],> 100 mg/kg-day
same,NOAEL,Rattus norvegicus [2]; [16],> 100 mg/kg-day
same,NOAEL,"Rattus norvegicus [2]; subchronic, duration: 90 days, oral, gavage, Sprague-Dawley",1000 mg/kg-day
same,LD50,Oryctolagus sp. [3]; New Zealand,> 2000 mg/kg
same,LOAEL,Oryctolagus sp. [3]; [17],> 2500 mg/kg-day
same,NOAEL,Oryctolagus sp. [3]; [17],2500 mg/kg-day
same,LC50,"Mus musculus [4]; inhalation, NMDI",> 50 µg/mL
same,LOAEL,Mus musculus [4]; [18],3070 mg/kg-day
same,NOAEL,Mus musculus [4]; [18],965 mg/kg-day
same,LC50,Cavia porcellus; inhalation,> 50 µg/mL
CCCCOCCOCCOCOCCOCCOCCCC [Bis(butoxyethoxyethoxy)methane],LC50,"Rattus norvegicus [2]; Inhalation, Wistar",> 200 µg/mL
same,LD50,"Rattus norvegicus [2]; dermal, occlusive, Sprague-Dawley",> 2000 mg/kg
same,LD50,"Rattus norvegicus [2]; oral, Sprague-Dawley",> 2000 mg/kg
same,NOAEL,"Rattus norvegicus [2]; developmental, duration: 9 weeks, oral, gavage, Sprague-Dawley",100 mg/kg-day
same,NOAEL,"Rattus norvegicus [2]; reproduction developmental, duration: 9 weeks, oral, gavage, F, Sprague-Dawley",100 mg/kg-day
same,NOAEL,"Rattus norvegicus [2]; reproduction developmental, duration: 9 weeks, oral, gavage, Sprague-Dawley",100 mg/kg-day
same,NOAEL,"Rattus norvegicus [2]; reproduction developmental, duration: 9 weeks, oral, gavage, Sprague-Dawley, generation: F0",100 mg/kg-day
same,NOAEL,"Rattus norvegicus [2]; reproduction developmental, duration: 9 weeks, oral, gavage, Sprague-Dawley, generation: F1",100 mg/kg-day
same,LC50,"Mus musculus [4]; Inhalation, Swiss-Webster",> 200 µg/mL
same,LC50,Cavia porcellus; Inhalation,> 200 µg/mL
ClC(Cl)(Cl)C(Cl)(Cl)Cl [Hexachloroethane],NOEL,"Rattus norvegicus [5]; subchronic, duration: 13 weeks, gavage, M/F, Fischer 344, Deaths + Clinical Observation: Hyperactivity Convulsions + Body Weight Changes: decrease + Relative Organ Weight: Liver increase, Brain …",< 47 mg/kg-day
same,NOAEL,Rattus norvegicus [6],1 mg/kg-day
same,NOAEL,Rattus norvegicus [7],465 mg/m3
same,NOAEL,"Rattus norvegicus [8]; chronic, duration: 16 weeks, oral, diet, M/F, Fischer 344, hepatic",1 mg/kg-day
same,NOAEL,"Rattus norvegicus [8]; reproduction developmental, duration: 10 days, inhalation, F, Sprague-Dawley, neurological",465 mg/m3
same,NOAEL,"Rattus norvegicus [8]; subchronic, duration: 6 weeks, inhalation, M/F, Sprague-Dawley, neurological",465 mg/m3
same,NOAEL,"Oryctolagus sp. [9]; short-term, duration: 12 days, M, hepatic",100 mg/kg-day
CC[C@H]1OC(=O)C[C@@H](O)[C@H](C)[C@@H](O[C@@H]2O[C@H](C)[C@@H](O)[C@H](N(C)C)[C@H]2O)[C@@H](CCN2C[C@H](C)C[C@H](C)C2)C[C@@H](C)C(=O)/C=C/C(C)=C/[C@@H]1CO[C@@H]1O[C@H](C)[C@@H](O)[C@@H](OC)[C@H]1OC [Tilmicosin],LOEL,Canidae [10]; [19],12 mg/kg-day
same,NOEL,Canidae [10]; [19],4 mg/kg-day
same,LOEL,Canidae [10]; [20],12 mg/kg-day
same,NOEL,Canidae [10]; [20],4 mg/kg-day
[B] [Boron],NOAEL,"Oryctolagus sp. [9]; developmental, duration: 13 days, M/F, developmental",22 mg/kg-day
same,NOAEL,Homo sapiens,0.8 mg/m3
C#CCOS(=O)OC1CCCCC1Oc1ccc(C(C)(C)C)cc1 (stereo unspecified) [Propargite],LEL,Oryctolagus sp. [11]; [21],6 mg/kg-day
same,NOEL,Oryctolagus sp. [11]; [21],2 mg/kg-day
same,NOEL,Canidae [12],22.5 mg/kg-day
CCOP(=S)(OCC)ON=C(C#N)c1ccccc1 [Phoxim],NOEL,"Rattus norvegicus [5]; short-term, duration: 28 days, gavage, M/F, Slc: Wistar, Clinical Observation: Salivation + Body Weight Changes: decrease + Hematology: Hgb decrease, , Hct decrease, Plt increase, WBC increase + …",< 7.5 mg/kg-day
same,NOEL,"Rattus norvegicus [5]; short-term, duration: 28 days, gavage, M/F, Wistar, Clinical Observation: Salivation + Body Weight Changes: Weight gain decrease + Blood Chemistry: TP increase, ALB increase, A/G increasegamma…",< 7.5 mg/kg-day
same,NOEL,"Canidae [10]; chronic, duration: 2 years, diet, Liver effects and inhibition of brain acetylcholinesterase activity",0.38 mg/kg-day
same,NOEL,"Canidae [10]; duration: 2 years, feed, Liver effects and inhibition of brain acetylcholinesterase activity",0.38 mg/kg-day
CC(C)(C)c1cc(CCC(=O)OCC(COC(=O)CCc2cc(C(C)(C)C)c(O)c(C(C)(C)C)c2)(COC(=O)CCc2cc(C(C)(C)C)c(O)c(C(C)(C)C)c2)COC(=O)CCc2cc(C(C)(C)C)c(O)c(C(C)(C)C)c2)cc(C(C)(C)C)c1O [Irganox 1010],LC50,Rattus norvegicus [2]; inhalation,> 1.96 µg/mL
same,LD50,Rattus norvegicus [2]; oral,> 5000 mg/kg
same,NOAEL,"Rattus norvegicus [2]; developmental, duration: 10 days, oral, gavage, Sprague-Dawley",1000 mg/kg-day
same,NOAEL,"Rattus norvegicus [2]; reproduction developmental, duration: 10 months, oral, diet, generation: F0",10000 ppm
same,NOAEL,"Rattus norvegicus [2]; reproduction developmental, duration: 10 months, oral, diet, generation: F1",10000 ppm
same,NOAEL,"Rattus norvegicus [2]; reproduction developmental, duration: 10 months, oral, diet, generation: F2",10000 ppm
same,NOAEL,"Rattus norvegicus [2]; subchronic, duration: 3 months, oral, diet, Sprague-Dawley",2500 mg/kg-day
same,LD50,Oryctolagus sp. [3],> 3160 mg/kg
same,NOAEL,"Mus musculus [4]; developmental, duration: 10 days, oral, gavage",1000 mg/kg-day
same,NOAEL,"Mus musculus [4]; developmental, duration: 10 days, oral, gavage, NMRI",1000 mg/kg-day
same,NOAEL,"Mus musculus [4]; reproduction developmental, duration: 10 days, oral, gavage, F",1000 mg/kg-day
same,NOAEL,Canidae [13],322 mg/kg-day
COCCO [2-Methoxyethanol],NOEL,"Rattus norvegicus [5]; subchronic, drinking water, F, Fischer 344, Deaths + Clinical Observation: Tremors Diarrhea Emaciation Abnormal posture Pallor Tachypnea Comatose state + Body Weight Changes: decrease…",70 mg/kg-day
same,NOEL,"Rattus norvegicus [5]; subchronic, drinking water, M/F, Fischer 344, Deaths + Clinical Observation: Tremors Diarrhea Emaciation Abnormal posture Pallor Tachypnea Comatose state + Body Weight Changes: decrease…",< 114 mg/kg-day
same,LOAEL,Oryctolagus sp. [11]; [22],311 mg/m3
same,NOAEL,Oryctolagus sp. [11]; [22],93 mg/m3
